Data reported in the supplement of paper PMC6965134.

assay: TIMS collisional cross section (CCS, N2) of the lipid ion; higher = larger ion cross section; details: sample type: Liver; ionization mode: positive; one isomer drawn

Row | Structure (SMILES) | TIMS collisional cross section [Å²]
1 | CCCCC/C=C\C/C=C\CCCCCCCCCCCC(=O)OC[C@@H](COC(=O)CCCCCCC/C=C\CCCCCCCC)OC(=O)CCCCCCCCCCC/C=C\CCCCCCCC [TG 18:1_22:1_22:2] (ion (formula + adduct): [C65H118O6+NH4] 1+) | 346.9
2 | CC/C=C\C/C=C\C/C=C\C/C=C\C/C=C\C/C=C\CCC(=O)OC[C@@H](COC(=O)CCCCCCC/C=C\CCCCCCCC)OC(=O)CCCCCCCCCCC/C=C\CCCCCCCC [TG 18:1_22:1_22:6] (ion (formula + adduct): [C65H110O6+NH4] 1+) | 342.5
3 | C(OC(=O)CCCCCCC/C=C\C/C=C\CCCCC)[C@]([H])(OC(CCCCCCC/C=C\C/C=C\CCCCC)=O)COC(CCCCCCC/C=C\C/C=C\CCCCC)=O [TG 18:2_18:2_18:2] (ion (formula + adduct): [C57H98O6+NH4] 1+) | 321.8
4 | CCCCC/C=C\C/C=C\CCCCCCCC(=O)OC[C@H](COC(=O)CCCCCCC/C=C\CCCCCCCCC)OC(=O)CCCCCCC/C=C\C/C=C\CCCCC [TG 18:2_18:2_19:1] (ion (formula + adduct): [C58H102O6+NH4] 1+) | 325.1
5 | CCCCC/C=C\C/C=C\C/C=C\C/C=C\CCCC(=O)OC[C@@H](COC(=O)CCCCCCC/C=C\C/C=C\CCCCC)OC(=O)CCCCCCC/C=C\C/C=C\CCCCC [TG 18:2_18:2_20:4] (ion (formula + adduct): [C59H98O6+NH4] 1+) | 323.3
6 | CCCCC/C=C\C/C=C\CCCCCCCC(=O)OC[C@H](COC(=O)CCCCCCCCC/C=C\CCCCCCCC)OC(=O)CCCCCCC/C=C\CCCCCCCCC [TG 18:2_19:1_20:1] (ion (formula + adduct): [C60H108O6+NH4] 1+) | 332.8

Continued, values first:

Row | TIMS collisional cross section [Å²] | Structure (SMILES)
7 | 327.9 | CC/C=C\C/C=C\C/C=C\C/C=C\C/C=C\CCCCCC(=O)OC[C@@H](COC(=O)CCCCCCC/C=C\C/C=C\CCCCC)OC(=O)CCCCCCC/C=C\C/C=C\CCCCC [TG 18:2_18:2_22:5] (ion (formula + adduct): [C61H100O6+NH4] 1+)
8 | 327.3 | CC/C=C\C/C=C\C/C=C\C/C=C\C/C=C\C/C=C\CCC(=O)OC[C@@H](COC(=O)CCCCCCC/C=C\C/C=C\CCCCC)OC(=O)CCCCCCC/C=C\C/C=C\CCCCC [TG 18:2_18:2_22:6] (ion (formula + adduct): [C61H98O6+NH4] 1+)
9 | 314.3 | CC/C=C\C/C=C\C/C=C\C/C=C\CCCCC(=O)OC[C@@H](COC(=O)CCCCCCC/C=C\C/C=C\CCCCC)OC(=O)CCCC/C=C\C/C=C\C/C=C\CCCCC [TG 18:2_18:3_18:4] (ion (formula + adduct): [C57H92O6+NH4] 1+)
10 | 321.6 | CC/C=C\C/C=C\C/C=C\CCCCCCCC(=O)O[C@@H](COC(=O)CCC/C=C\C/C=C\C/C=C\C/C=C\CCCCC)COC(=O)CCCCCCC/C=C\C/C=C\CCCCC [TG 18:2_18:3_20:4] (ion (formula + adduct): [C59H96O6+NH4] 1+)
11 | 319.5 | CC/C=C\C/C=C\C/C=C\C/C=C\C/C=C\CCCC(=O)OC[C@@H](COC(=O)CCCCCCC/C=C\C/C=C\CCCCC)OC(=O)CCCCCCC/C=C\C/C=C\C/C=C\CC [TG 18:2_18:3_20:5] (ion (formula + adduct): [C59H94O6+NH4] 1+)
12 | 324.9 | CC/C=C\C/C=C\C/C=C\C/C=C\C/C=C\C/C=C\CCC(=O)OC[C@@H](COC(=O)CCCCCCC/C=C\C/C=C\CCCCC)OC(=O)CCCCCCC/C=C\C/C=C\C/C=C\CC [TG 18:2_18:3_22:6] (ion (formula + adduct): [C61H96O6+NH4] 1+)

same assay, conditions: sample type: plasma; ionization mode: positive; one isomer drawn

Row | TIMS collisional cross section [Å²] | Structure (SMILES)
13 | 317.6 | CC/C=C\C/C=C\C/C=C\CCCCCCCC(=O)OC[C@@H](COC(=O)CCCCCCC/C=C\C/C=C\CCCCC)OC(=O)CCCCCCC/C=C\C/C=C\CCCCC [TG 18:2_18:2_18:3] (ion (formula + adduct): [C57H96O6+NH4] 1+)
14 | 327 | CC/C=C\C/C=C\C/C=C\C/C=C\C/C=C\C/C=C\CCC(=O)OC[C@@H](COC(=O)CCCCCCC/C=C\C/C=C\CCCCC)OC(=O)CCCCCCC/C=C\C/C=C\CCCCC [TG 18:2_18:2_22:6] (ion (formula + adduct): [C61H98O6+NH4] 1+)
15 | 321.6 | CC/C=C\C/C=C\C/C=C\CCCCCCCC(=O)O[C@@H](COC(=O)CCC/C=C\C/C=C\C/C=C\C/C=C\CCCCC)COC(=O)CCCCCCC/C=C\C/C=C\CCCCC [TG 18:2_18:3_20:4] (ion (formula + adduct): [C59H96O6+NH4] 1+)
